pIC50: −log10 of the molar value. Read-outs that look alike come from different tables or passages of the source.
System: human monocytes
Assay: Assay (f): stimulated eicosanoid (PGE2, LTC4) release by human monocytes
Type: cell-based
Settings: Monocyte, 0.25 h, A23187 1 μM, 15 min
Procedure: Assay (f): Measurement of stimulated eicosanoid release by human monocytes.
Leukocyte-rich leukopaks obtained from Biological Specialties (Lansdale, Pa.) were collected from male volunteers who were not taking anti-inflammatory drugs. Leukopaks were centrifuged (90× g for 15 min) twice to remove the platelet-rich plasma. The cell pellet was washed by centrifugation and resuspended in HBSS without Ca^2+ or Mg^2+. Histopaque 1077 was layered under the cell suspension and centrifuged at 400× g for 30 min to obtain the buffy coat. The interfacial buffy coat, containing monocytes and lymphocytes, was removed and saved. The buffy coat was washed twice with HBSS without Ca^2+ or Mg^2+ by centrifugation. The cell pellet (4-6×10^8 cells/30 mls) was resuspended in iso-osmotic media (RPMI-1640, 10% heat inactivated fetal bovine serum (FBS), 0.2 mM L-glutamine, 2.5 mM HEPES) and layered over an equal volume of 46% Percol mixture (10X PBS/Percol; 9.25/0.75) and 54% iso-osmotic media and centrifuged for 30 min at 1000× g (Marshall and Roshak, Biochem. Cell Biol. 71: 331-339, 1993). The monocyte population located at the interface of the Percoll gradient was removed and washed twice in HBSS without Ca^2+ or Mg^2+.
Monocytes (5×10^6 /ml) were incubated as a suspension in serum-free RPMI- 1640 medium containing the vehicle DMSO (<1%) or drug for 30 min at […] after which vehicle or stimuli was added for the indicated time. The stimulating agent is solubilized in DMSO and appropriate vehicle controls were included in all experiments. The amount of stimuli was chosen from the linear portion of a concentration versus product curve usually representing 60-80% maximal stimulation over the indicated incubation time at 37° C. (A23187, 1 μM,(15 min). The reaction was terminated by reduction of pH through addition of citric acid and centrifugation (10 min, 400× g, 4° C.). Cell viability was monitored before and after experiments using trypan blue exclusion. The cell-free media was decanted and stored at -70° C. until analyzed. Prostaglandin E2 and LTC4 were directly measured in cell-free media using enzyme immunoassay (EIA) kits purchased from Caymen Chemical Co. (Ann Arbor, Mich.). Sample or standard dilutions were made with appropriate media and analyzed in triplicate. Results were obtained by extrapolation from a standard curve prepared in the media and expressed as pg or ng/ml of sample.

[1] = read-out: IC50 for LTC4 release

For `O=C(Nc1cc(C(F)(F)F)cc(C(F)(F)F)c1)Nc1ccccc1Oc1ccccc1C(=O)O` [Example 2, 2-[2-[3-[3,5-Bis (trifluoromethyl)phenyl]ureido]phenoxy]benzoic acid], the pIC50 [1] was roughly 6.00 and the pIC50 (read-out: IC50 of PGE2 release) was 6.00 to 7.00.

For `O=C(Nc1cc(C(F)(F)F)cc(C(F)(F)F)c1)Nc1cc(C(F)(F)F)ccc1Oc1ccccc1C(=O)O` [Example 7, 2-[2-[3-[3,5-Bis(trifluoromethyl)phenyl]ureido]-4-trifluoromethylphenoxy]benzoic acid], the pIC50 [1] was 5.70 to 6.00 and the pIC50 (read-out: IC50 of PGE2 release) was less than 5.00.

From patent US5447957A, “Anti-inflammatory compounds” (SmithKline Beecham Corp., priority 1994, dated 1995)
